What was measured:
Type in all cases: in vivo
[1] = system: ticks (Ixodes scapularis); assay: Tick Petri dish bioassay with treated sand (repellency and toxicity); details: 2.75 mg/dish
Description: To test the effectiveness of nootkatone against ticks, ticks (Ixodes scapularis) were collected from Idlewild, La. Nootkatone efficiacy was tested relative to a known repellent, N,N-diethyl-m-toluamide (“Deet”). REPEL®, which contains 27.55% Deet, was purchased locally from a retail garden store.
The bioassay was conducted using Petri dishes (5 cm diameter and 1 cm height). To ensure adequate moisture for the ticks, 1 ml of a hot agar solution (1.5% in H2O) was spread evenly on the inside surfaces of the Petri dish, including the top, bottom, and edges. After the agar cooled, sand that was treated as described below was spread evenly on the inside surfaces of the Petri dish. The sand was held in place by the agar.
For the treated sand, either 2 mg nootkatone or 100 mg REPEL® was initially dissolved in 2 ml ethanol, and then 200 μl of the solution was mixed with 2 g sand that had been autoclaved and cooled. The control was autoclaved sand with 200 μl ethanol only added. One half of the surfaces in the Petri dishes were covered with 2 g treated sand, and the other half with 2 g untreated sand. In the nootkatone-treated Petri dishes, the final concentration was 200 μg/dish; while in the Deet treated Petri dishes, the final concentration was 2.75 mg/dish. Control Petri dishes were prepared by covering all sides with untreated sand. One tick was added to each Petri dish, and the top replaced. The number of replicates were as follows: control, 6; nootkatone, 9; and Deet, 8. […] Repellent activity was noted if the tick was found on the untreated side of the Petri dish. The ticks in the control Petri dishes were randomly distributed on the left and right sides.
The above experiment was repeated with ticks (Ix. scapularis) collected from Hammond, La. The number of replicates in this experiment were as follows: controls, 8; nootkatone, 10; and Deet, 8.

[2] = system: cat fleas (Ctenocephalides felis (Bouche)); assay: Cat flea Petri dish filter paper bioassay (repellency and mortality); details: 2.76 mg per dish
Description: To test the effectiveness of nootkatone against fleas, cat fleas (Ctenocephalides felis (Bouche)) were collected from a flea colony at St. Gabriel, La.
Petri dishes (5 cm diameter and 1 cm height) were prepared by lining one half of the top and the bottom with a half circle of filter paper (55 mm), and lining the other half with a second half circle of filter paper. For the treated Petri dishes, 50 mg nootkatone or 100 mg REPEL® were dissolved in 0.5 ml ethanol. […] Ten replicate Petri dishes were used for each of the treatments. The ethanol solution was added to the filter paper on the top and bottom and dried for 10 min. To place the fleas in the Petri dishes, fleas were temporarily immobilized by placing them at −20° C. for 5 min. The number of fleas in each Petri dish varied: for the 10 control Petri dishes, the average number in each dish was 10.2, with a range of 4 to 23; for 0.2 mg nootkatone, the average number in each dish was 8.5, with a range of 5 to 18; for 1 mg nootkatone, the average number in each dish was 10.6, with a range of 6 to 21; for 2 mg nootkatone, the average number in each dish was 11.1, with a range of 9 to 15 (Fleas could be counted in only 9 Petri dishes; one had too many fleas to count); and for 2.76 mg Deet, the average number in each dish was 6.7, with a range of 5 to 9.
The number of fleas on each side of each Petri dish was counted at 1 hr, 2 hr, 3 hr, 4 hr, 24 hr, 48 hr, 72 hr, and 96 hr.

[3] = system: German cockroaches (Blattella germanica); assay: German cockroach Petri dish filter paper bioassay (repellency and toxicity)
Description: To test the efficacy of nootkatone against cockroaches, German cockroaches (Blattella germanica) were collected at Baton Rouge, La., the same day as the bioassay was begun.
For the bioassay, Petri dishes (10 cm diameter×1 cm) were used. The Petri dishes were prepared by lining one half of the top and one half of the bottom with a half circle of filter paper (125 mm), and lining the other half with a second half circle of filter paper. For the treated Petri dishes, 50 mg nootkatone and 300 mg REPEL® were dissolved in 2.0 ml ethanol. To each Petri dish was added either ethanol only, 30 mg Deet, 1 mg nootkatone, or 10 mg nootkatone. Ten replicate Petri dishes were used for each of the treatments. The ethanol solution was added to the filter paper on the top and bottom and dried for 10 min. One cockroach was added to each Petri dish. The length of the cockroaches varied from 1 to 1.5 cm. The dishes were then observed at 15 min, 30 min, 1 hr, 2 hr, 3 hr, 4 hr, 5 hr, 24 hr, 48 hr, and 120 hr.

[4] = 8 replicates, ticks from Hammond

## CCN(CC)C(=O)c1cccc(C)c1 [Deet, N,N-diethyl-m-toluamide, reference compound]
[1]; [4]
  Petri dishes that lost the repellent activity after 96 hr: one
  Ticks dead at 24 hr (number): one
  Ticks dead at 72 hr (number): one
  Ticks dead at 96 hr (number): four
[1]; 8 replicates, ticks from Idlewild
  Petri dishes that had lost the repellent activity after 90 hr: three
[1]; ticks from Hammond
  Ticks dead at 96 hr (percent): 50%
[1]; ticks from Idlewild
  Ticks dead after 90 hr: No ticks
[2]
  Overall activity against fleas: effective as both a repellent and a toxicant
[2]; first observation (1 hr)
  Repellent activity against fleas: showed repellent activity
[3]; 30 mg per dish
  Repellent activity against the cockroaches: no significant repellent activity
[3]; 30 mg per dish, 30 min
  Percent Repellency: 50%
[3]; 30 mg per dish, 1 hr
  Percent Repellency: 40%
[3]; 30 mg per dish, 2 hr
  Percent Repellency: 70%
[3]; 30 mg per dish, 3 hr
  Percent Repellency: 50%
[3]; 30 mg per dish, 4 hr
  Percent Repellency: 60%
[3]; 30 mg per dish, 5 hr
  Percent Repellency: 70%
[3]; 30 mg per dish, 24 hr
  Percent Repellency: 38%
[3]; 30 mg per dish, 48 hr
  Percent Repellency: 43%
[3]; 30 mg per dish, 120 hr
  Percent Repellency: 50%
[3]; any of the treatments (30 mg Deet; 1 mg or 10 mg nootkatone), up to 120 hr
  Number of cockroach deaths compared with the control: not significantly different from the control

Source: patent publication US6906108B2, “Extracts of vetiver oil as repellent and toxicant to ants, ticks, and cockroaches” (Board of Supervisors of Louisiana State University and …, priority 2001, dated 2005)
